Results: patent publication US20040220149A1, “Nerve cell survival promoters containing cyclic phosphatidic acid derivative” (priority 2001, published 2004)

Assays:
Type in all cases: cell-based
[1] = system: primary cultured nerve cells derived from a hippocampus of a rat fetal brain; experiment: Influence of P13K inhibitors on the increase of nerve cell survival rate by cPA; details: 10 μM, nerve cell culture with cPA, 48 hours
Protocol: Wortmannin (made by Sigma) and LY294002 (made by Sigma), which are inhibitors against phosphatidyl inositol 3-kinase (P13K), were dissolved in DMSO at the concentration of 10 mM and 50 mM respectively, and diluted with PBS. Each of the solutions was added to the cell culture solution at the respective final concentrations of 30 nM and 10 μM. The inhibitors were added to the cell culture solution at 2 hours prior to the addition of cPA, to carry out pretreatment. The cells were photographed at 48 hours after the addition of cPA, and the survival of the cells was morphologically judged on judged on the photographs to calculate the survival rate.

[2] = system: NIH-3T3, a mouse-derived fibroblast cell; experiment: Formation of actin stress fiber in NIH-3T3 by addition of lysophospholipids; details: 10 μM lipid, 37° C., 30 minutes, serum-starved NIH-3T3, Rhodamine phalloidin staining; control without lipid: no stress fiber
Protocol: (A-5) Formation of Stress Fiber in NIH-3T3 by Addition of Various Lysophospholipids
NIH-3T3, a mouse-derived fibroblast cell, was incubated in a Dulbecoo's Modified Eagle's Medium (DMEM) containing 10% fetal bovine serum (FBS; made by Moregate), and was used in the Experiment. 2.5×10^4 cells of the NIH-3T3 were inoculated in a petri dish (10 cm in diameter) paved with cover glasses of 22 mm in diameter, and the medium was replacing with a FBS-free medium after 24 hours, and the cells were incubated in a serum starvation state for 48 hours. 10 μM of the lysophospholipid was added, and the cells were incubated at 37° C. for 30 minutes for stimulation. Then, the cells were fixed in the Dalbecco's PBS containing 3.7% of paraformaldehyde and 0.1% of Triton X-100 at room temperature for 10 minutes. Thereafter, the cells were stained with 5 units/ml of rhodamine phalloidin (made by Funakoshi) at 37° C. for 1 hour. The cover glasses were washed with PBS thrice, and observation was carried out by a cofocus laser microscope TCS NT Control laser Scanning Microscope (made by Leica).
The product obtained by the A sp362-derived PLD reaction was studied with respect to its biochemical activity in order to confirm further that it was a compound which is identical to cPA. Namely, the activity of forming actin stress fiber in a fibroblast cell, one of the physiological acteivities of cPA, was studied. To NIH-3T3, i.e. a fibroblast cell line derived from mouse, in the subconfluent state in the serum starvation state, each 10 μM of LPA, a chemically synthesized PHYLPA, or cPA, i.e. the PLD reaction product was added at 37° C. for 30 minutes, and then actin stress fiber was stained with Rhodamine phalloidin, and observation was carried out.

[3] = system: primary cultured nerve cells derived from a hippocampus of a rat fetal brain; experiment: Survival rate of primary cultured nerve cells derived from rat fetal hippocampus
Protocol: (§1) (A-1) Preparation and Culturing of the Primary Cultured Nerve Cells Derived From a Hippocampus of a Rat Fetal Brain
Sprague-Dowley rat with 16 days of pregnancy were used as material. The rat were anesthetized with ether, from which the fetal was taken out. The whole brain was taken out under a stereomicroscope, and a hippocampus inside the cerebral cortex was picked out. The picked out hippocampus was collected in a 15 ml centrifuging tube, and 0.5 ml of 2.5% trypsin and a culture solution was added to be a 5 ml solution. The mixture was incubated at 37° C. for 15 minutes and then centrifuged at 3,000 rpm for 15 minutes. The supernatant was removed, 5 ml of the culture solution was added, and the mixture was centrifuged at 3,000 rpm for 15 minutes. The procedure was additionally repeated twice. After adding 3-5 ml of the culture solution, the resultant was pipetted with a Pasteur pipette and then with an injection needle (TERUMO NEEDLE (0.70×38 mm); made by Terumo). The cells, which were finally dissociated through a cell strainer (FALCON Cell Strainer 70 μm; made by FALCON), were primarily cultured on a plate. A culture liquid and a method for coating a plate which allow the nerve cells to be cultured without aggregation, were studied. […]

[4] = system: primary cultured nerve cells derived from a hippocampus of a rat fetal brain; experiment: Measurement of the elongation of neurites
Protocol: as §1
Sprague-Dowley rat with 16 days of pregnancy were used as material. The rat were anesthetized with ether, from which the fetal was taken out. The whole brain was taken out under a stereomicroscope, and a hippocampus inside the cerebral cortex was picked out. The picked out hippocampus was collected in a 15 ml centrifuging tube, and 0.5 ml of 2.5% trypsin and a culture solution was added to be a 5 ml solution. The mixture was incubated at 37° C. for 15 minutes and then centrifuged at 3,000 rpm for 15 minutes. The supernatant was removed, 5 ml of the culture solution was added, and the mixture was centrifuged at 3,000 rpm for 15 minutes. The procedure was additionally repeated twice. After adding 3-5 ml of the culture solution, the resultant was pipetted with a Pasteur pipette and then with an injection needle (TERUMO NEEDLE (0.70×38 mm); made by Terumo). The cells, which were finally dissociated through a cell strainer (FALCON Cell Strainer 70 μm; made by FALCON), were primarily cultured on a plate. A culture liquid and a method for coating a plate which allow the nerve cells to be cultured without aggregation, were studied.
(A-3) Measurement of the Elongation of Neurites
In order to study the influence of cPA on the elongation of neurites, the cells were primarily cultured according to the method as described in (A-1), and were photographed at 12, 18 and 24 hours after the start of the culture. The average length of neurites per cell and the number of cells having the neurite at respective time points were analyzed by an image analysis software (NIH Image 1.62).
5 μM of oleoyl cPA was added to the cell culture solution, and the cells were photographed after 24, 48, and 72 hours. The average length of neurites per cell was analyzed by the analysis with the image analysis software (NIH Image 1.62). […] The effect was strongest after 24 hours, as compared with those after 48 hours (1.5 times) and 72 hours (1.2 times) (FIG. 10(a)). Thus, it was considered that the evaluation of the action of cPA on the elongation of neurites at earlier time points was necessary, and the effect of cPA at various levels on the elongation of neurites was studied at 12, 18 and 24 hours after addition. As the result, at the time point after 12 hours, the elongation of neurites in the sample to which cPA of 1.0 μM was added became about 1.7 times that of the control, and gave the maximum value (FIG. 10(b)).

O=c1cc(N2CCOCC2)oc2c(-c3ccccc3)cccc12 [LY294002]
cytotoxicity (cell morphology) [1]: many cells were destroyed and deformed

CCCCCC[C@@H]1C[C@@H]1CCCCCCCC(=O)OC[C@@H]1COP(=O)(O)O1 [PHYLPA]
formation of actin stress fiber [2]: the formation of stress fibers was observed

CCCCCCCC/C=C\CCCCCCCC(=O)OCC1COP(=O)(O)O1 (stereo not shown) [oleoyl cPA, 1-oleoyl cyclic phosphatidic acid]
survival of the cells compared with control without cPA addition ([3]; 5 μM, serum-free culture): the survival of the cells became better | cPA level most effective for the cell survival ([3]; 0.5, 1.0, 5.0 or 10.0 μM tested, cell density 3.0×10^5 cells/cm^2): 1.0 µM | ratio of cells having neurites ([4]; 1.0 μM, 24 hours after addition): high | elongation of neurites relative to control (maximum value) ([4]; 1.0 μM, after 12 hours): about 1.7 times | average length of neurites per cell relative to control ([4]; 5 μM, after 24 hours): twice longer than that of the control | average length of neurites per cell relative to control ([4]; 5 μM, after 48 hours): 1.5 times | average length of neurites per cell relative to control ([4]; 5 μM, after 72 hours): 1.2 times | elongation of neurites compared with control without cPA addition ([4]; 5 μM, serum-free culture): the elongation of neurites was also observed | formation of actin stress fiber [2]: the formation of stress fibers was observed

lysophosphatidic acid [LPA]
formation of actin stress fiber [2]: the formation of stress fibers was observed

nerve growth factor [NGF]
elongation of neurites compared with that of 1.0 μM cPA (about 1.7 times control) ([4]; (optimal level), after 12 hours): comparable
